# Experimental data: patent publication US11572590B2, “Methods for evaluating tumor cell spheroids using 3D microfluidic cell culture device” (Dana-Farber Cancer Institute, Inc., priority 2017, dated 2023)
# Like-named read-outs stand apart in the source and are kept apart here.
# Tests used:
# Test in all cases: SelectScreen Kinase Profiling, single point inhibition and IC50 for off-target kinases
# Assay type in all cases: biochemical
# off-target kinases [1] = molecular target: off-target kinases (Homo sapiens, UniProt O00238); conditions: BMPR1B (ALK6), LanthaScreen Binding
# off-target kinases (Homo sapiens, UniProt O00238), sequence (O00238 14-502): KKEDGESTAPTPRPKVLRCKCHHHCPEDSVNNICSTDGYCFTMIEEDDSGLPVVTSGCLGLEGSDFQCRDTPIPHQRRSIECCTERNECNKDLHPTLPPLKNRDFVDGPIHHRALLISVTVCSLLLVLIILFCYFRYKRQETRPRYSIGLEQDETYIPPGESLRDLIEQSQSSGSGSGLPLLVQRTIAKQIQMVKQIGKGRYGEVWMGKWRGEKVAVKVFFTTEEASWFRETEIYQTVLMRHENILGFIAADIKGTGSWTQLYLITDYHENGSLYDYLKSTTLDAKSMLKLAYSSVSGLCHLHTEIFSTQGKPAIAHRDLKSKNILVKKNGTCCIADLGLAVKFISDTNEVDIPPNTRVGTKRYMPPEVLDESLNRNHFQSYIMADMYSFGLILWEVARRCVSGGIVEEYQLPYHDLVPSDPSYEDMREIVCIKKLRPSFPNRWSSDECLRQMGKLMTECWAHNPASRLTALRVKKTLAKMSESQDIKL
# off-target kinases [2] = molecular target: T1, off-target kinases (Homo sapiens, UniProt O00444); conditions: PLK4, LanthaScreen Binding
# T1 sequence (O00444 1-970): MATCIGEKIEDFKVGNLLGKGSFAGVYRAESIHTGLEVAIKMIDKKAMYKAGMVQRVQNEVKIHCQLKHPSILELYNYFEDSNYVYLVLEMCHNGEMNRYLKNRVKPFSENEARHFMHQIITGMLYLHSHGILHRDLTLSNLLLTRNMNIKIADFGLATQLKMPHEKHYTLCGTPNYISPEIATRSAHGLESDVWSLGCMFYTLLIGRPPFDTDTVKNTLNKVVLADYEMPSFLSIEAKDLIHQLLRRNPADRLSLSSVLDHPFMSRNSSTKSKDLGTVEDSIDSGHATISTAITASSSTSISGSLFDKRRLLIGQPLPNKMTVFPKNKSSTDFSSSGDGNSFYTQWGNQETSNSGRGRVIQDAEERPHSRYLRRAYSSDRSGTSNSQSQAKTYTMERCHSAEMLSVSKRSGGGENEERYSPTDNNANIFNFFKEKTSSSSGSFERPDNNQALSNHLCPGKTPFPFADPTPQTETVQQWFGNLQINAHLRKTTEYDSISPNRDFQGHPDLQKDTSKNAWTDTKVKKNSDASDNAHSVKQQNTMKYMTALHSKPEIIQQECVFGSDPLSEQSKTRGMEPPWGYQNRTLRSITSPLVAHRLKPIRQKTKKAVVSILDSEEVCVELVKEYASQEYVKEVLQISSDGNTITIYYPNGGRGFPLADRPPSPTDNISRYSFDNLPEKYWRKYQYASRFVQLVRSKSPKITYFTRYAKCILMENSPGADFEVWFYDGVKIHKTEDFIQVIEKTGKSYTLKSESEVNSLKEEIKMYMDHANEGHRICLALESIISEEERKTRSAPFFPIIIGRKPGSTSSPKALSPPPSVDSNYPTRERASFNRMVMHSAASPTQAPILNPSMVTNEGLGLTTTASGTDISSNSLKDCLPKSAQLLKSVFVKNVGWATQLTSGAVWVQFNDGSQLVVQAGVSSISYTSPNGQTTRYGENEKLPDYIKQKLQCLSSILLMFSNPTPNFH
# off-target kinases [3] = molecular target: off-target kinases (Homo sapiens, UniProt O96017); conditions: CHEK2 (CHK2), ZLYTE, ATP Km app
# off-target kinases (Homo sapiens, UniProt O96017), sequence (O96017 whole entry): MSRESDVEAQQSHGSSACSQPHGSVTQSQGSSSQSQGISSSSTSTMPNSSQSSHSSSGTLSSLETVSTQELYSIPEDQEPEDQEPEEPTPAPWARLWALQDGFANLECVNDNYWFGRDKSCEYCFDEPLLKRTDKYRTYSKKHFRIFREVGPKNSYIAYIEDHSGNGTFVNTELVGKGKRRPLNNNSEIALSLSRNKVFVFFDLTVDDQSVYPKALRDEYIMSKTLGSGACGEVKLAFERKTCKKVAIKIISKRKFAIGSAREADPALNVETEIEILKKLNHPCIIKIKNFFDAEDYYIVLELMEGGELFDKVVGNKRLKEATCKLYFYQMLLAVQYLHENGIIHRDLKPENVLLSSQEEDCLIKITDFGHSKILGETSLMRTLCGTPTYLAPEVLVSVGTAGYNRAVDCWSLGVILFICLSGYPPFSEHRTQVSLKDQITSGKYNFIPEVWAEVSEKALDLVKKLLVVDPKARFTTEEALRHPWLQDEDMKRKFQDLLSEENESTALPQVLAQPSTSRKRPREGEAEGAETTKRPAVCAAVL
# off-target kinases [4] = molecular target: off-target kinases (Homo sapiens, UniProt P04626)
# off-target kinases (Homo sapiens, UniProt P04626), sequence (P04626 23-1255): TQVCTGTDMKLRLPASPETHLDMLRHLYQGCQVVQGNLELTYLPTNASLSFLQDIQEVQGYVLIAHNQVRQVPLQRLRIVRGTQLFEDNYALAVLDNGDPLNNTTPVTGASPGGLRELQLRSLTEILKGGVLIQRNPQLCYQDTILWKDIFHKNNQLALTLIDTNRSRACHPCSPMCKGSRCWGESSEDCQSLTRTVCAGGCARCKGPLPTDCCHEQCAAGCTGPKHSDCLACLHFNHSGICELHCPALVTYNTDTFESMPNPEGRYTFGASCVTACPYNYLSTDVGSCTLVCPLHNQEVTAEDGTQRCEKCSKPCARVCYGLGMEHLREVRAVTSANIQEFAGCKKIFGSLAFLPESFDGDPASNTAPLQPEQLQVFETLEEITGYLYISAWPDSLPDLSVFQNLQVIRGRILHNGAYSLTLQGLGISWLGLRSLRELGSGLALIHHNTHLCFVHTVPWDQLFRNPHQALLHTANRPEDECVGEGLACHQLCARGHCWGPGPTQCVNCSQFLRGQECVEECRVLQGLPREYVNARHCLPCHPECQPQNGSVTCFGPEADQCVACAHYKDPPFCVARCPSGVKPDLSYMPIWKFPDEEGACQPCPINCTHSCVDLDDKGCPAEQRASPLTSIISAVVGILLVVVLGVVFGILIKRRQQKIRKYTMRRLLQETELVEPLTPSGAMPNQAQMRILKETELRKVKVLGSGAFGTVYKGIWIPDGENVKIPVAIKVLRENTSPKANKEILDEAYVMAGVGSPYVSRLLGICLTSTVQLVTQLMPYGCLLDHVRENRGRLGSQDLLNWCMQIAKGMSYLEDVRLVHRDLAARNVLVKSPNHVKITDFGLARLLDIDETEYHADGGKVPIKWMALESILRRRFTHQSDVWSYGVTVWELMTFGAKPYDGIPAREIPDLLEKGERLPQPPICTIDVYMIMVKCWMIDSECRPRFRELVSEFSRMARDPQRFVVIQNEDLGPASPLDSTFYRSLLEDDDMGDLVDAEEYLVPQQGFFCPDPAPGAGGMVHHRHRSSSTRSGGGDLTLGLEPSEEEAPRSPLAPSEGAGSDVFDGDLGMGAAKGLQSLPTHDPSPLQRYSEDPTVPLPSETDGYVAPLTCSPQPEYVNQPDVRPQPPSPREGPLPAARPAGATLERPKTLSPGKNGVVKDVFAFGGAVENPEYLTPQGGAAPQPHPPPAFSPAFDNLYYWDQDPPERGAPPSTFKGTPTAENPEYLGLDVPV
# off-target kinases [5] = molecular target: off-target kinases (Homo sapiens, UniProt Q02750, S218D/S222D); conditions: MAP2K1 (MEK1) S218D S222D (mutant), LanthaScreen Binding
# off-target kinases (Homo sapiens, UniProt Q02750, S218D/S222D), sequence (Q02750 whole entry S218D/S222D): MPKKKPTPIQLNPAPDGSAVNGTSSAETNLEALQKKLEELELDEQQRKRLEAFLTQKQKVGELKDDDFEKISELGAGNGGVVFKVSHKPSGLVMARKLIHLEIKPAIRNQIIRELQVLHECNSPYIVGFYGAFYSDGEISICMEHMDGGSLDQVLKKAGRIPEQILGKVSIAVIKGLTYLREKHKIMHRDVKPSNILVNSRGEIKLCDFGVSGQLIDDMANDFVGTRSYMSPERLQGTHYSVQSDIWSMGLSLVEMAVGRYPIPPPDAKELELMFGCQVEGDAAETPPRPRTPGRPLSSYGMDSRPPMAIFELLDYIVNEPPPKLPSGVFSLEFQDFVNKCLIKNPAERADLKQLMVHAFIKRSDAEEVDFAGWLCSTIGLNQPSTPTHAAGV
# off-target kinases [6] = molecular target: off-target kinases (Homo sapiens, UniProt Q13557); conditions: CAMK2D (CaMKII delta), ZLYTE, ATP Km app
# off-target kinases (Homo sapiens, UniProt Q13557), sequence (Q13557 whole entry): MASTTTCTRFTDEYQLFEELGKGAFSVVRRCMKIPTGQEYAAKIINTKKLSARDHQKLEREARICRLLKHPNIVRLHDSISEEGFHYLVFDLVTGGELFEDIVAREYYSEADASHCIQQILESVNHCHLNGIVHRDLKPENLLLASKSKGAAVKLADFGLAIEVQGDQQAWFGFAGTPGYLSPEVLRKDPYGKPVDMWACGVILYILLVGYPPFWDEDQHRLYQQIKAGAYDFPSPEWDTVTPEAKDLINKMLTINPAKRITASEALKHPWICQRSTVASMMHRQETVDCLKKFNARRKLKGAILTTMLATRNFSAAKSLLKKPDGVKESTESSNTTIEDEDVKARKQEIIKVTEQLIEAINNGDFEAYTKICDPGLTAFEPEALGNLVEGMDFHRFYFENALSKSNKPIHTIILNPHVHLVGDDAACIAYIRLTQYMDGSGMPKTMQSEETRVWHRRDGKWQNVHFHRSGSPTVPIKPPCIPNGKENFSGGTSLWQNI
# off-target kinases [7] = molecular target: off-target kinases (Homo sapiens, UniProt Q5S007, R1441C); conditions: LRRK2 R1441C, ATP Km app, Adapta
smiles,measurement,setting,value
"N#Cc1cc(-c2ncnc(Nc3ccc(N4CCN(C5COC5)CC4)cc3)n2)ccc1OC1CCOCC1 [Compound 1, 5-(4-((4-(4-(oxetan-3-yl)piperazin-1-yl)phenyl)amino)-1,3,5-triazin-2-yl)-2-((tetrahydro-2H-pyran-4-yl)oxy)benzonitrile]",inhibition,off-target kinases [1]; read-out: % Inhibition 1,56%
same,inhibition,off-target kinases [1]; read-out: % Inhibition 2,60%
same,inhibition,off-target kinases [1]; read-out: % Inhibition Avg,58%
same,inhibition,off-target kinases [2]; read-out: % Inhibition 1,96%
same,inhibition,off-target kinases [2]; read-out: % Inhibition 2,95%
same,inhibition,off-target kinases [2]; read-out: % Inhibition Avg,96%
same,inhibition,off-target kinases [3]; read-out: % Inhibition 1,27%
same,inhibition,off-target kinases [3]; read-out: % Inhibition 2,27%
same,inhibition,off-target kinases [3]; read-out: % Inhibition Avg,27%
same,inhibition,"off-target kinases [4]; ERBB2 (HER2), ZLYTE, ATP Km app, read-out: % Inhibition 1",0%
same,inhibition,"off-target kinases [4]; ERBB2 (HER2), ZLYTE, ATP Km app, read-out: % Inhibition 2",-3%
same,inhibition,off-target kinases [4]; read-out: % Inhibition Avg,-1%
same,inhibition,off-target kinases [5]; read-out: % Inhibition 1,10%
same,inhibition,off-target kinases [5]; read-out: % Inhibition 2,7%
same,inhibition,off-target kinases [5]; read-out: % Inhibition Avg,8%
same,inhibition,off-target kinases [6]; read-out: % Inhibition 1,18%
same,inhibition,off-target kinases [6]; read-out: % Inhibition 2,19%
same,inhibition,off-target kinases [6]; read-out: % Inhibition Avg,19%
same,inhibition,off-target kinases [7]; read-out: % Inhibition 1,99%
same,inhibition,off-target kinases [7]; read-out: % Inhibition 2,95%
same,inhibition,off-target kinases [7]; read-out: % Inhibition Avg,97%
